The conditions of data set [1]: cited from earlier work.
For data set [2] the following is noted: cited from earlier work. The source holds these as a separate data set.
The conditions of data set [3]: cited from earlier work. The source holds these as a separate data set.
Data set [4] can be described thus: Solubility experiments in sodium phosphate buffer pH 6.5, 37 °C (HPLC). The conditions noted are these: for dissolved MEL / dissolved PRM: highest dissolved concentration, sodium phosphate buffer pH 6.5, 37 °C. How it is done: Solubility experiments were conducted in sodium phosphate buffer solutions at pH 6.5 and 37 °C to simulate intestinal physiological conditions. For each experiment, an excess crystalline solid was sieved through a 300 μm sieve and introduced into a flask with a screw top containing 100 mL of the medium. The solution was stirred at 200 rpm using a magnetic stir bar for 48 h to reach the equilibrium state. […] After each sampling, the volume of the liquid removed from the suspension was not compensated. The withdrawn suspension was filtered through 0.2 μm nylon filters and diluted prior to high-performance liquid chromatography (HPLC) analysis. The solubility experiment for each crystal form was repeated in triplicate. After the last sample collection, the remaining solid material in the suspension was filtered, dried, and characterized by IR and PXRD.
A C18 HPLC column (YMC-Pack ODS-A column, 4.6 mm × 250 mm, 5 μm) with a flow rate of 1 mL min^–1 was employed, and the column temperature was set at 25 °C. The binary mobile phase consisted of acetonitrile and sodium phosphate buffer (pH 6.5) in a volume ratio of 25:75. The samples were diluted appropriately with the mobile phase, and the absorbance was measured at 347 nm.

Molecules are shown by their SMILES. Values after ≈ are worked out from the molar mass of the structure shown. Values joined by “and” are separate entries in the source; they are usually repeats but may differ in a detail not shown here. Identical values can stand only once. Like-named read-outs stand apart in the source and are kept apart here.

For `CN1C(C(=O)Nc2ccccn2)=C(O)c2sc(Cl)cc2S1(=O)=O.CNC(=O)NC` [LRM 1,3-dimethyl urea], the “IDR vs parent API (fold)” value in data set [1] (pH 1.2) is on record as 28 x; in data set [1] (pH 7.4) it was 19 x. In data set [2], the “bioavailability vs parent API (fold)” value is reported as 2.5 x.
With `CN1C(C(=O)Nc2ccccn2)=C(O)c2sc(Cl)cc2S1(=O)=O.O=C(O)c1ccc(O)cc1` [LRM 4-hydroxy benzoic acid], the “solubility vs parent API (fold)” value in data set [3] (in H2O) was “improved solubility in H2O (x 1.6–6.9)”.
With `CN1C(C(=O)Nc2ccccn2)=C(O)c2sc(Cl)cc2S1(=O)=O.Cl` [LRM HCl], in data set [1] (pH 7), the “dissolution vs parent API (fold)” value is on record as “improved dissolution at pH 7 (x 1.3–1.6)”.
Consider `CN1C(C(=O)Nc2ccccn2)=C(O)c2sc(Cl)cc2S1(=O)=O.N` [LRM NH3], for which, in data set [1] (pH 7), the “dissolution vs parent API (fold)” value is on record as “improved dissolution at pH 7 (x 1.3–1.6)”.
On to `CN1C(C(=O)Nc2ccccn2)=C(O)c2sc(Cl)cc2S1(=O)=O.O=C(O)c1ccccc1` [LRM benzoic acid], for which the “solubility vs parent API” value in data set [3] (in H2O) is on record as “no solubility advantage in H2O”.
Regarding `CN1C(C(=O)Nc2ccccn2)=C(O)c2sc(Cl)cc2S1(=O)=O.O=C(O)CCCC(=O)O` [LRM glutaric acid], the “solubility vs parent API” value in data set [3] (in H2O) is “no solubility advantage in H2O”.
For the compound `CN1C(C(=O)Nc2ccccn2)=C(O)c2sc(Cl)cc2S1(=O)=O.CS(=O)(=O)O` [LRM methanesulfonic acid], the “dissolution vs parent API (fold)” value in data set [1] (pH 7) is listed as “improved dissolution at pH 7 (x 1.3–1.6)”.
Turning to `CN1C(C(=O)Nc2ccccn2)=C(O)c2sc(Cl)cc2S1(=O)=O.O=C(O)c1ccccc1O` [LRM salicylic acid], the “solubility vs parent API” value in data set [3] (in H2O) is on record as “no solubility advantage in H2O”.
As to `Cc1cnc(NC(=O)C2=C(O)c3ccccc3S(=O)(=O)N2C)s1.O=C(O)c1ccc(O)cc1` [MEL 4-hydroxybenzoic acid], the “bioavailability vs parent API (fold)” value in data set [2] was 1.1–1.6 x. Also, the “solubility vs parent API” value in data set [3] (pH 6.5) is given as “higher solubility”.
`Cc1cnc(NC(=O)C2=C([O-])c3ccccc3S(=O)(=O)N2C)s1.O.[K+]` [MEL KOH H2O]: the “dissolution behavior vs parent API” value in data set [1] (pH 5.6) is reported as “improved dissolution behavior”. For the same compound, the “bioavailability vs parent API” value in data set [2] (in vivo) is listed as “no bioavailability advantage”.
In the case of `Cc1cnc(NC(=O)C2=C(O)c3ccccc3S(=O)(=O)N2C)s1.N=C(N)NCCCC(N)C(=O)O` [MEL arginine], the “dissolution behavior vs parent API” value in data set [1] (pH 7.5) was “improved dissolution behavior”.
With `Cc1cnc(NC(=O)C2=C(O)c3ccccc3S(=O)(=O)N2C)s1.NC(CS)C(=O)O` [MEL cysteine], the “dissolution behavior vs parent API” value in data set [1] (pH 7.5) is “improved dissolution behavior at pH 7.5”.
As to `Cc1cnc(NC(=O)C2=C(O)c3ccccc3S(=O)(=O)N2C)s1.O=C(O)/C=C/C(=O)O` [MEL fumaric acid], the “bioavailability vs parent API” value in data set [2] was “no bioavailability advantage”.
For the compound `Cc1cnc(NC(=O)C2=C(O)c3ccccc3S(=O)(=O)N2C)s1.NCC(=O)O` [MEL glycine], the “dissolution behavior vs parent API” value in data set [1] (pH 7.5) is recorded as “improved dissolution behavior at pH 7.5”.
Consider `Cc1cnc(NC(=O)C2=C(O)c3ccccc3S(=O)(=O)N2C)s1.O=C(O)CO` [MEL glycolic acid], for which, in data set [2], the “bioavailability vs parent API” value was “no bioavailability advantage”.
In the case of `Cc1cnc(NC(=O)C2=C(O)c3ccccc3S(=O)(=O)N2C)s1.O=C(O)CCc1ccccc1` [MEL hydrocinnamic acid], the “bioavailability vs parent API” value in data set [2] was “no bioavailability advantage”.
`Cc1cnc(NC(=O)C2=C(O)c3ccccc3S(=O)(=O)N2C)s1.Nc1ccncc1` [MEL-4AP]: the “dissolved MEL” value in data set [4] is reported as 0.68 ± 0.05 mg mL^–1. For the same compound, in data set [4] (pH 6.5, 37 °C), the “dissolved MEL, times higher than that of the pure MEL” value was 8.1 times and the “time for which the supersaturation state is maintained” value was over 300 min. Further, the “apparent solubility compared with the pure API” value in data set [4] (pH 6.5, this work) is recorded as “higher solubility at pH 6.5”.
As for `CN(C)c1ccncc1.Cc1cnc(NC(=O)C2=C(O)c3ccccc3S(=O)(=O)N2C)s1` [MEL-4DMP], in data set [4], the “dissolved MEL” value was 0.85 ± 0.02 mg mL^–1. In addition, the “time for which the supersaturation state is maintained” value in data set [4] (pH 6.5) was “more than 200 min”. The “dissolved MEL, times higher than that of the pure MEL” value in data set [4] (pH 6.5, 37 °C) worked out at 10.2 times.
Regarding `CN1C(C(=O)Nc2ccccn2)=C(O)c2ccccc2S1(=O)=O.OCCNCCO` [PRM diethanolamine], the “bioavailability vs parent API” value in data set [2] is “higher bioavailability”.
For `CN1C(C(=O)Nc2ccccn2)=C(O)c2ccccc2S1(=O)=O.NCCO` [PRM ethanolamine], the “bioavailability vs parent API” value in data set [2] is listed as “higher bioavailability”.
Turning to `CN1C(C(=O)Nc2ccccn2)=C(O)c2ccccc2S1(=O)=O.Cc1nc(-c2ccc(OCC(C)C)c(C#N)c2)sc1C(=O)O` [PRM febuxostat], the “dissolution vs parent API (fold)” value in data set [1] (pH 6.8) is 2.8 x.
For `CN1C(C(=O)Nc2ccccn2)=C(O)c2ccccc2S1(=O)=O.COc1cc(/C=C/C(=O)O)ccc1O` [PRM ferulic acid], the “IDR vs parent API (fold)” value in data set [1] (pH 2) is on record as 1.7 x.
On to `CN1C(C(=O)Nc2ccccn2)=C(O)c2ccccc2S1(=O)=O.COC(=O)c1ccc(O)cc1` [PRM methylparaben], for which, in data set [1] (pH 1.2), the “IDR vs parent API” value was “no solubility and IDR advantages”; the “dissolution rates in the sink condition” value is given as “superior dissolution rates”.
For `CN1C(C(=O)Nc2ccccn2)=C(O)c2ccccc2S1(=O)=O.OCCN(CCO)CCO` [PRM triethanolamine], the “bioavailability vs parent API” value in data set [2] is “higher bioavailability”.
Regarding `CN1C(C(=O)Nc2ccccn2)=C(O)c2ccccc2S1(=O)=O.NC(N)=O` [PRM urea], the “solubility vs parent API” value in data set [3] is “no solubility advantage”.
Take `CN1C(C(=O)Nc2ccccn2)=C(O)c2ccccc2S1(=O)=O.COc1cc(C=O)ccc1O` [PRM vanillin]: in data set [1] (pH 1.2), the “IDR vs parent API” value is “no solubility and IDR advantages”; the “dissolution rates in the sink condition” value was “superior dissolution rates”. The “solubility vs parent API” value in data set [3] (pH 1.2) is “no solubility and IDR advantages”.
A word on the thermodynamic solubility: it is solubility found after equilibrating the solid with the medium. Turning to `CN1C(C(=O)Nc2ccccn2)=C(O)c2ccccc2S1(=O)=O` [PRM, Piroxicam], in data set [4], the “dissolved PRM” value is 0.39 mg mL^–1 and 0.39 ± 0.01 mg mL^–1. For the same compound, the “time to highest solubility / maximum dissolved concentration / equilibrium” value in data set [4] (pH 6.5) amounted to 60 min. The compound also had a solubility (thermodynamic) at 48 h in data set [4] (pH 6.5, aqueous buffer) of 140 µg/mL (≈ 423 µM).
In the case of `CN1C(C(=O)Nc2ccccn2)=C(O)c2ccccc2S1(=O)=O.Nc1ccncc1` [PRM-4AP], the “dissolved PRM” value in data set [4] is 1.08 mg mL^–1 and 1.08 ± 0.02 mg mL^–1. Moreover, in data set [4] (pH 6.5, 37 °C), the “dissolved PRM, times higher than that of the anhydrous PRM” value (from here on “dissolved PRM, times higher than that”) turned out to be 2.8 times. The “apparent solubility compared with the pure API” value in data set [4] (pH 6.5, this work) is on record as “higher solubility”.
On to `CN(C)c1ccncc1.CN1C(C(=O)Nc2ccccn2)=C(O)c2ccccc2S1(=O)=O` [PRM-4DMP], for which the “dissolved PRM” value in data set [4] was 1.07 mg mL^–1 and 1.07 ± 0.01 mg mL^–1. In data set [4] (pH 6.5), the “apparent solubility compared with the pure API” value is “higher solubility”. For the same compound, the “dissolved PRM, times higher than that” value in data set [4] (pH 6.5, 37 °C) is 2.8 times.
For the compound `C1CNCCN1.CN1C(C(=O)Nc2ccccn2)=C(O)c2ccccc2S1(=O)=O.CN1C(C(=O)Nc2ccccn2)=C(O)c2ccccc2S1(=O)=O` [PRM-PPZ], in data set [4], the “dissolved PRM” value was 0.43 mg mL^–1 and 0.43 ± 0.04 mg mL^–1. In addition, the “apparent solubility compared with the pure API” value in data set [4] (pH 6.5) is given as “higher solubility”. Further, the “dissolved PRM, times higher than that” value in data set [4] (pH 6.5, 37 °C) came out at 1.1 times.
`CN1C(C(=O)Nc2ccccn2)=C(O)c2sccc2S1(=O)=O.Cl` [TNM HCl]: the “IDR vs parent API” value in data set [1] (pH 7) was “no solubility and IDR advantages at pH 7”. Further, the “solubility vs parent API” value in data set [3] (pH 7) is “no solubility and IDR advantages at pH 7”.
As for `CN1C(C(=O)Nc2ccccn2)=C(O)c2sccc2S1(=O)=O.O=C(O)c1ccccc1` [TNM benzoic acid], the “IDR vs parent API (fold)” value in data set [1] (pH 7) was 2 x. The “solubility vs parent API” value in data set [3] (pH 7) is given as “no solubility advantage”.
On to `CN1C(C(=O)Nc2ccccn2)=C(O)c2sccc2S1(=O)=O.O=C(O)CO` [TNM glycolic acid], for which the “IDR vs parent API” value in data set [1] (pH 4.5) was “no IDR advantage at pH 4.5 and 6.8”; in data set [1] (pH 6.8), “no IDR advantage at pH 4.5 and 6.8”.
As to `CN1C(C(=O)Nc2ccccn2)=C(O)c2sccc2S1(=O)=O.CS(=O)(=O)O` [TNM methanesulfonic acid], in data set [1] (pH 7), the “IDR vs parent API” value was “no solubility and IDR advantages at pH 7”. The “solubility vs parent API” value in data set [3] (pH 7) is “no solubility and IDR advantages at pH 7”.
`C1CNCCN1.CN1C(C(=O)Nc2ccccn2)=C(O)c2sccc2S1(=O)=O` [TNM piperazine]: the “IDR vs parent API (fold)” value in data set [1] (pH 7) is on record as 2.5 x. The “solubility vs parent API (fold)” value in data set [3] (pH 7) is 5.5 x.
Take `CN1C(C(=O)Nc2ccccn2)=C(O)c2sccc2S1(=O)=O.Oc1cccc(O)c1O` [TNM pyrogallol]: the “IDR vs parent API (fold)” value in data set [1] (pH 7) is recorded as 2.4–4.2 x. For the same compound, in data set [3] (pH 7), the “solubility vs parent API (fold)” value is on record as 5.8–10.1 x.
For `CN1C(C(=O)Nc2ccccn2)=C(O)c2sccc2S1(=O)=O.O=C1NS(=O)(=O)c2ccccc21` [TNM saccharin], the “IDR vs parent API” value is “no IDR advantage at pH 4.5 and 6.8” in data set [1] (pH 4.5); “no IDR advantage at pH 4.5 and 6.8” in data set [1] (pH 6.8).
Turning to `CN1C(C(=O)Nc2ccccn2)=C(O)c2sccc2S1(=O)=O.O=C(O)c1ccccc1O` [TNM salicylic acid], the “IDR vs parent API” value is “no IDR advantage at pH 4.5 and 6.8” in data set [1] (pH 4.5); “no IDR advantage at pH 4.5 and 6.8” in data set [1] (pH 6.8); “no solubility and IDR advantages at pH 7” in data set [1] (pH 7). For the same compound, in data set [3] (pH 7), the “solubility vs parent API” value is “no solubility and IDR advantages at pH 7”.
Turning to `CN1C(C(=O)Nc2ccccn2)=C(O)c2sccc2S1(=O)=O.O=C(O)CCC(=O)O` [TNM succinic acid], the “IDR vs parent API” value in data set [1] (pH 4.5) is “no IDR advantage at pH 4.5 and 6.8”; in data set [1] (pH 6.8) it was “no IDR advantage at pH 4.5 and 6.8”.

Source of the values: publication PMC9933440 (Crystal Growth & Design, 2022).
